Measured values: patent publication US20230202973A1, “BARNESIN A, DERIVATIVES AND USES THEREOF” (Leibniz-Institut Für Naturstoff-Forschung Und …, priority 2018, published 2023)
pIC50: −log10 of the molar value. Square brackets hold non-standard residues; d marks the D form. Peptide text beside a SMILES is read from it. * marks the point of attachment. Sta = CC(C)C[C@H](N)[C@@H](O)CC(=O)O; Isovaleryl = CC(C)CC(=O)*

Experiments:
[1] = molecular target: T1, papain (Carica papaya, UniProt P00784); conditions: reported in literature for known compounds; read-out: Papain, reported inhibitory activity as IC50 value; cited from earlier work
T1 construct: purchased Sigma-Aldrich P4762
T1 sequence (P00784 134-345): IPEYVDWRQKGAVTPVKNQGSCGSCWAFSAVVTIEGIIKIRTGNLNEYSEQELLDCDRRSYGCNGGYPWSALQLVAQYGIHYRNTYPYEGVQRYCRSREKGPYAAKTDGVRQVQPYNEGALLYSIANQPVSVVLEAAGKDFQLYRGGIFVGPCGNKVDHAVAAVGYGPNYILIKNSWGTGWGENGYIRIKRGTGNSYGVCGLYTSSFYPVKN

[2] = test system: trypsin; conditions: reported in literature for known compounds; read-out: Trypsin, reported inhibitory activity as IC50 value; cited from earlier work
[3] = molecular target: T2, Cathepsin B (Homo sapiens, UniProt P07858); conditions: reported in literature; cells printed in μM; read-out: Cathepsin B, reported inhibitory activity as IC50 value; cited from earlier work
[4] = test system: Trypsin; conditions: reported in literature; cited from earlier work
[5] = molecular target: T1, papain; test: Protease assay with azocasein: papain; format: biochemical; conditions: azocasein substrate, pH 7.2; n.i. = no inhibition
Protocol: (§1) Protease Assays with azocasein: Protease inhibition assays against the proteases papain, ficin, trypsin, pepsin and thermolysin were performed according to the protocol of Garcia-Carreño (loc. cit.) in a reaction buffer containing 25 mM TRIS-HCl, 0.15 M NaCl, pH 7.2 (or pH 3.5 for aspartic protease). The total assay volume was 47 μL buffer with 2 μL of the protease as well as 1 μL of suitable inhibitor or corresponding inhibitor solvent (100% MeoH or water). Final concentration of proteases was as follows: 2 mg/mL for papain (Sigma-Aldrich, P4762), 600 μg/mL for ficin (Sigma-Aldrich, F6008), 80 μg/mL for trypsin (Thermo Fisher, 23266), 60 mg/mL for pepsin (Sigma-Aldrich P6887)) and 2 μg/mL for thermolysin (Sigma-Aldrich, P1512).
(§2) Inhibitors were dissolved in 100% MeOH or water and added to the assay (1 μL); final concentration: 2% MeOH. Samples of control inhibitors were prepared as follows: (1) serine protease (trypsin): PMFS (2 mM) and soybean trypsin inhibitor (240 μM) (Sigma-Aldrich, T1021), (2) cysteine proteases (papain and ficin): iodacetamide (2 mM), (3) […] (pepsin): pepstatin A (1 μg/mL) (Sigma-Aldrich, P4265), (4) metalloprotease (thermolysin): EDTA (10 mM). […] Negative controls were performed with protease alone (without inhibitor) and MeOH at a final concentration of 2% (reference for activity of 100%). Extract absorbance controls were performed using inhibitor (1 μL in MeOH) without protease. Blanks were performed using 49 μL buffer and 1 μL MeOH.
(§3) Samples were incubated with buffer and suitable inhibitor (or without for negative controls) for 1 h at r.t. and the reaction was started afterward by adding 50 μl of […] substrate and incubated for 1 h at 37° C. After stopping the reaction with trichloracetic acid (TCA), the separation of the precipitate was accomplished by centrifugation at 6500 g for 5 min. The hydrolyzed substrate supernatant was incubated in an equal volume of 0.5 N NaOH for 5 min and the absorbance was measured at 440 nm. OD values of the protease control without inhibitor were used as reference for a 100% activity.
(§4) The log IC50 values were determined using the standard curves analyzing tool with four parameter logistic equation of SigmaPlot12 with technical triplicates. Propagation of error was calculated using the standard error and log IC50 values where the equation of error propagation is defined as Δy=0.43Δx/x.

[6] = test system: ficin; test: Protease assay with azocasein: ficin; format: biochemical; conditions: azocasein substrate, pH 7.2; n.i. = no inhibition
Protocol: as §1, §2, §3, §4

[7] = molecular target: T2, Cathepsin B; test: Cathepsin B inhibition assay (Z-Arg-Arg-AMC); format: biochemical; conditions: Z-Arg-Arg-AMC substrate, pH 6.0; n.i. = no inhibition
Protocol: Cathepsin B inhibition assay. Cathepsin B inhibition assay was determined according to Hiwasa et al. (loc. cit.) with minor changes. Cathepsin B was purchased from Sigma Aldrich (C0150) and stored in 50 mM sodium acetate, 1 mM EDTA, pH 5 (adjusted with acetic acid). Cathepsin B was activated by preincubation at 40° C. for 10 min in assay buffer (0.1 M sodium acetate 1.3 mM EDTA, pH 6.0 adjusted with acetic acid, 2 μM DTT, 2.6 mM cysteine and 0.05% Triton X100). […] Final concentration of cathepsin B was 0.1 mg/ml. […] After stopping the reaction with 85 μL buffer containing 100 mM sodium monochlor acetate, 30 mM sodium acetate, 70 mM acetic acid, the hydrolyzed substrate was detected at an excitation wavelength of 380 nm and a fluorescence wavelength of 450 nm, using a fluorophotometer. 1 μL of 1.5 mM leupeptin was used as enzyme inhibition control.

[8] = molecular target: T3, trypsin (Bos taurus, UniProt P00760); test: Protease assay with azocasein: trypsin; format: biochemical; conditions: azocasein substrate, pH 7.2; n.i. = no inhibition
T3 construct: purchased Thermo Fisher 23266
T3 sequence (P00760 24-246): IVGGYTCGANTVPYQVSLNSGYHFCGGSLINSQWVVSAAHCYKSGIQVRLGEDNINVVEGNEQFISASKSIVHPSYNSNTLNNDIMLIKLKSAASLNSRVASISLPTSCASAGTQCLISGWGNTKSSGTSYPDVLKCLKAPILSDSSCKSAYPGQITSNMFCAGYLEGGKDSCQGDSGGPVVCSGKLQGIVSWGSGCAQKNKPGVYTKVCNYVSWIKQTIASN
Protocol: as §1, §2, §3, §4

[9] = molecular target: T4, pepsin (Sus scrofa, UniProt P00791); test: Protease assay with azocasein: pepsin; format: biochemical; conditions: azocasein substrate, pH 3.5; n.i. = no inhibition
T4 construct: purchased Sigma-Aldrich P6887
T4 sequence (P00791 60-385): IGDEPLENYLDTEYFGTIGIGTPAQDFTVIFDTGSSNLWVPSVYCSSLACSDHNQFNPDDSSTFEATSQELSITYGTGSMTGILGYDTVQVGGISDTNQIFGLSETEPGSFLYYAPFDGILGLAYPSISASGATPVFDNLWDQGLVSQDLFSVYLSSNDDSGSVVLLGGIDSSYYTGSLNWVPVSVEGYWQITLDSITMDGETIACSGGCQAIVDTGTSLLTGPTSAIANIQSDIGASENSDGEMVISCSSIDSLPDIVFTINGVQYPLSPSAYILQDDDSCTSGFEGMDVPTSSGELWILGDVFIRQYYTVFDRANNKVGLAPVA
Protocol: as §1, §2, §3, §4

[10] = molecular target: T5, thermolysin (Bacillus thermoproteolyticus, UniProt P00800); test: Protease assay with azocasein: thermolysin; format: biochemical; conditions: azocasein substrate, pH 7.2; n.i. = no inhibition
T5 construct: purchased Sigma-Aldrich P1512
T5 sequence (P00800 233-548): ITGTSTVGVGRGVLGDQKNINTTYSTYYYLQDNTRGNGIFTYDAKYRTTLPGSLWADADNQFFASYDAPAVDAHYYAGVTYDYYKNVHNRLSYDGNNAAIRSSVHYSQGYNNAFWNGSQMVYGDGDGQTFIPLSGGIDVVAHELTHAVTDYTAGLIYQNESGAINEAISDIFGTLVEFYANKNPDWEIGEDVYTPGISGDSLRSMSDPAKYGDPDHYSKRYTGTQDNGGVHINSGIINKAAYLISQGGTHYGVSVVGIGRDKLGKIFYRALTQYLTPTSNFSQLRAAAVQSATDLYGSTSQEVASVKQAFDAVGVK
Protocol: as §1, §2, §3, §4

[11] = test system: thermolysin (Sigma-Aldrich, P1512); conditions: 10 mM EDTA
Protocol: (§5) Protease Assays with azocasein: Protease inhibition assays against the proteases papain, ficin, trypsin, pepsin and thermolysin were performed according to the protocol of Garcia-Carreño (loc. cit.) in a reaction buffer containing 25 mM TRIS-HCl, 0.15 M NaCl, pH 7.2 (or pH 3.5 for aspartic protease). The total assay volume was 47 μL buffer with 2 μL of the protease as well as 1 μL of suitable inhibitor or corresponding inhibitor solvent (100% MeoH or water). […]
(§6) Inhibitors were dissolved in 100% MeOH or water and added to the assay (1 μL); final concentration: 2% MeOH. […] Extract absorbance controls were performed using inhibitor (1 μL in MeOH) without protease. […]
(§7) Samples were incubated with buffer and suitable inhibitor (or without for negative controls) for 1 h at r.t. and the reaction was started afterward by adding 50 μl of […] substrate and incubated for 1 h at 37° C. […] The hydrolyzed substrate supernatant was incubated in an equal volume of 0.5 N NaOH for 5 min and the absorbance was measured at 440 nm. […]
as §4

[12] = test system: trypsin (Thermo Fisher, 23266); test: Protease assay with azocasein, trypsin; format: biochemical; conditions: 2 mM PMFS
Protocol: as §5, §6, §7, §4

[13] = test system: pepsin (Sigma-Aldrich P6887); test: Protease assay with azocasein, pepsin; format: biochemical; conditions: 1 μg/mL pepstatin A
Protocol: as §5, §6, §7, §4

For `CC(=O)N[C@@H](CC(C)C)C(=O)N[C@@H](CC(C)C)C(=O)N[C@H](C=O)CCCNC(=N)N` [Leupeptin, reference compound], the pIC50 [1] is given as 6.07 and the pIC50 [2] is given as 5.66.
In the case of Cystatin, the pIC50 [1] is listed as 7.54 and the pIC50 [2] is listed as 5.46.
In the case of `CC[C@H](NC(=O)C[C@H](O)[C@H](CC(C)C)NC(=O)[C@H](CC(C)C)NC(=O)[C@@H]1N[C@H]1C(=O)O)C(=O)N[C@H](/C=C/C(=O)O)CCCNC(=N)N` [Miraziridine A], the IC50 [3] is given as 2.05 µM and the pIC50 [4] is given as 4.22.
In the case of `CCCCCCCC(=O)N[C@@H](Cc1ccc(O)cc1)C(=O)N[C@@H](CCCNC(=N)N)CCC(=O)O` [(R), 2,3,17,18-Tetrahydrobarnesin A, reference compound], the “Papain, inhibitory activity as IC50 value” [5] was “n.i”, the “Ficin, inhibitory activity as IC50 value” [6] was “n.i” and the “Cathepsin B, inhibitory activity as IC50 value” [7] was “n.i”. For the same compound, the “Trypsin, inhibitory activity as IC50 value” [8] was “n.i”, the “Pepsin, inhibitory activity as IC50 value” [9] was “n.i” and the “Thermolysin, inhibitory activity as IC50 value” [10] was “n.i”.
With `O=C(O)CN(CCN(CC(=O)O)CC(=O)O)CC(=O)O` [EDTA] the “inhibition of enzyme activity (control inhibitor), thermolysin” value [11] was greater than 95%.
With `O=S(=O)(F)Cc1ccccc1` [PMFS] the “inhibition of enzyme activity (control inhibitor), trypsin” value [12] was greater than 95%.
In the case of `CC(C)CC(=O)N[C@H](C(=O)N[C@H](C(=O)N[C@@H](CC(C)C)[C@@H](O)CC(=O)N[C@@H](C)C(=O)N[C@@H](CC(C)C)[C@@H](O)CC(=O)O)C(C)C)C(C)C` [pepstatin A] (Isovaleryl-VV[Sta]A[Sta]-OH), the “inhibition of enzyme activity (control inhibitor), pepsin” value [13] was greater than 95%.
